# Measured values: PubChem BioAssay AID1189 (EPA DSSTox, 2008)
# The source made the active and inactive calls.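 Rule for the calls: active = a tumor-causing dose value with its tumor site reported for any sex and species group of a rodent or other animal cancer study; inconclusive = only studies judged inadequate by the national testing program; inactive = tested in at least one study, none positive.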
# Test: DSSTox (CPDBAS) Carcinogenic Potency Database Summary SingleCellCall Results
# Conditions: animal chronic carcinogenicity bioassays, CPDB summary call
# Text: The Carcinogenic Potency Database (CPDB) is a unique and widely used international resource of the results of over 6500 chronic, long-term animal cancer tests on over 1500 chemical substances. The CPDB provides easy access to the bioassay literature, with qualitative and quantitative analyses of both positive and negative experiments that have been published over the past 50 years in the general literature and by the National Cancer Institute/National Toxicology Program. The CPDB standardizes the diverse literature of cancer bioassays that vary widely in protocol, histopathological examination and nomenclature, and in the published author's choices of what information to provide in their papers. Results are reported in the CPDB for tests in rats, mice, hamsters, dogs, and nonhuman primates, and are based on the most positive result among all experiments for each sex-species. The DSSTox CPDBAS (all species) file incorporates data from the CPDB Summary Tables for the full list of over 1500 chemical substances tested in at least one species. A summary SingleCellCall, based on experimental bioassay results of one or more species, is provided for the entire DSSTox CPDBAS file (see Source URL).
# An assignment of categorical carcinogenic activity based on minimal evidence for or against activity. […] Associated TD50 values and tumor site details for the relevant species/sex experiment supporting this overall CPDBAS SingleSiteCall are provided in the full CPDBAS DSSTox file (see Comment) and the corresponding CPDBAS Species Bioassay in PubChem.
row,SMILES,outcome
1,CCN(Cc1cccc(S(=O)(=O)O)c1)c1ccc(C(=C2C=CC(=[N+](CC)Cc3cccc(S(=O)(=O)[O-])c3)C=C2)c2ccccc2)cc1,active
2,O=[N+]([O-])c1ccc(Nc2ccc(Nc3ccccc3)c(S(=O)(=O)O)c2)c([N+](=O)[O-])c1,active; inactive
3,CC(O)CO (stereo not given),inactive
4,CCCCN(N)C=O,active
5,Cc1ccc2c(-c3ccccc3)nc(=O)n(C(C)C)c2c1,inactive
6,c1ccc2c(c1)[nH]c1cnccc12,inactive
7,CC(C)NCC(O)c1ccc(NS(C)(=O)=O)cc1 (stereo not given),inactive
8,NC(=O)N(CCO)N=O,active; inactive
9,c1ccc2sc(SSc3nc4ccccc4s3)nc2c1,inactive
10,COC(=O)NN,inactive; active
11,FC(F)(F)CCl,active; inactive
12,Cc1ccc2c(c1N)C(=O)c1ccccc1C2=O,active
13,O=NN(CC(=O)O)CC(=O)O,inactive
14,COCCl,active; inactive
15,CC1(C)S[C@@H]2[C@H](NC(=O)[C@H](N)c3ccccc3)C(=O)N2[C@H]1C(=O)O,inactive
16,C#C[C@]1(O)CC[C@H]2[C@@H]3CCc4cc(OC)ccc4[C@H]3CC[C@@]21C,inactive
17,CN(C)P(=O)(N(C)C)N(C)C,active
18,O=c1ccc(=O)[nH][nH]1,inactive; active
19,COP(=O)(OC)O/C(=C\Cl)c1cc(Cl)c(Cl)cc1Cl,active; inactive
20,C/C=C\c1ccc(OC)cc1,inactive
21,C/C=C1/C[C@@H](C)[C@](O)(CO)C(=O)OCC2=CC[N+]3([O-])CC[C@@H](OC1=O)[C@@H]23 (stereo not given in full),active
22,NC(N)=Nc1nc(CSCCNc2nsnc2N)cs1,active
23,CC(C)(Oc1ccc(C2CC2(Cl)Cl)cc1)C(=O)O (stereo not given),active
24,CC(=O)OC/C=C(\C)CCC=C(C)C,inactive

row,SMILES,outcome
1,C=COC(N)=O,active; inactive
2,CC(COc1ccccc1)N(CCCl)Cc1ccccc1 (stereo not given),active; inactive
3,O=C(O)CNCC(=O)O,inactive
4,CC1(C)OC(=O)NC1=O,inactive
5,C=Cc1cccc[n+]1[O-],inactive
6,ClCOCc1ccc(COCCl)cc1,active
7,CCCC(Cl)CCC(Cl)CCC(Cl)CCC(Cl)CCC(Cl)CCC(Cl)CCC(C)Cl (stereo not given),active
8,CCCCC(CC)COC(=O)COc1ccc(Cl)cc1Cl (stereo not given),inactive
9,CC(Cc1ccccc1)NN (stereo not given),inactive
10,[O]N=O,inactive
11,Cc1c(N)nc(C)c2c1[nH]c1ccccc12,active
12,NNc1nc(-c2ccc([N+](=O)[O-])o2)cs1,active; inactive
13,CCC1(c2ccccc2)C(=O)NC(=O)NC1=O,active
14,Cc1cc(O)c2c(c1)C(=O)c1cc(O)cc(O)c1C2=O,inactive; active
15,O=NN1CCC1,active
16,O=C1C(Cl)=C(Cl)C(=O)c2ccccc21,inactive
17,[CH3][Hg][Cl],active
18,CC(C)CCCCCCOC(=O)c1ccccc1C(=O)OCCCCCCC(C)C,active; inactive
19,Cl,inactive
20,Cc1cc(C)nc(-c2ccc([N+](=O)[O-])o2)n1,active
21,OC[C@H]1O[C@@H]2O[C@H]3[C@H](O)[C@@H](O)[C@@H](O[C@H]4[C@H](O)[C@@H](O)[C@@H](O[C@H]5[C@H](O)[C@@H](O)[C@@H](O[C@H]6[C@H](O)[C@@H](O)[C@@H](O[C@H]7[C@H](O)[C@@H](O)[C@@H](O[C@H]8[C@H](O)[C@@H](O)[C@@H](O[C@H]1[C@H](O)[C@H]2O)O[C@@H]8CO)O[C@@H]7CO)O[C@@H]6CO)O[C@@H]5CO)O[C@@H]4CO)O[C@@H]3CO,inactive
22,O=NN1CCNCC1,active; inactive
23,C[C@]12CC[C@H](OS(=O)(=O)O)CC1=CC[C@@H]1[C@@H]2CC[C@]2(C)C(=O)CC[C@@H]12,inactive; active
24,Cc1cccc(N=Nc2ccc(N(C)C)cc2)c1,active

row,SMILES,outcome
1,c1ccc2n[nH]nc2c1,inactive
2,CC(=O)NNc1ccc(CO)cc1,active
3,Cc1cc(O)cc(C)c1N(C)C,inactive; active
4,O=NO,active
5,CC(C)(C)NCC(O)c1cc(O)cc(O)c1 (stereo not given),active
6,CC(C)(C)c1cc(CO)cc(C(C)(C)C)c1O,inactive
7,NC(=O)N(CCc1ccccc1)N=O,active
8,[N-]=[N+]=CC(=O)OC[C@H](N)C(=O)O,active
9,NCC(=O)O,active
10,CC1CC(C)(C)CC(OOC(C)(C)C)(OOC(C)(C)C)C1 (stereo not given),inactive; active
11,Cc1cccc(C)c1NC1=NCCCS1,inactive
12,CN(C)/N=N/c1nc[nH]c1C(N)=O,active
13,CCCCC(CC)CO (stereo not given),active; inactive
14,CCCCOC(=O)c1ccccc1C(=O)OCc1ccccc1,active
15,NC(=S)NNC=O,inactive
16,CN(N=O)C(=O)NCCC[C@H](N)C(=O)O,active
17,C[C@@H]1CC2(O[C@@H]2C)C(=O)O[C@@H]2CCN(C)C/C=C(/COC(=O)[C@]1(C)O)C2=O (stereo not given in full),active; inactive
18,CCCCN(CCCCO)N=O,active; inactive
19,NC(N)=NC(N)=NCCc1ccccc1,inactive
20,O=C1c2cccc(O)c2C(=O)c2c(O)cccc21,active
21,COc1cc2c(c3oc(=O)c4c(c13)CC[C@H]4O)[C@@H]1C=CO[C@H]1O2,active
22,O=NN1CCCCCCC1,active
23,CN(C)C(=O)NC1CC2CC1C1CCCC21 (stereo not given),inactive
24,N#[N+]c1cc(CCN)ccc1[O-],active

row,SMILES,outcome
1,COc1cccc2c1cc([N+](=O)[O-])c1c(C(=O)O)cc3c(c12)OCO3,active; inactive
2,NNC(N)=O,active; inactive
3,ClC(Cl)=C(Cl)C(Cl)=C(Cl)Cl,active
4,C[N+](C)(C)CCO,inactive
5,COc1cc(/C=N/NC(=O)c2ccncc2)ccc1O,active; inactive
6,C[C@]12C=CC(=O)C=C1CC[C@@H]1[C@@H]2C(=O)C[C@@]2(C)[C@H]1CC[C@]2(O)C(=O)CO,inactive
7,O=NN1CCCN(N=O)CC1,active
8,Nc1ccc(N(CCO)CCO)cc1,inactive
9,N[C@@H](Cc1cnc[nH]1)C(=O)O,inactive
10,Cn1c(=O)c2[nH]cnc2n(C)c1=O,inactive; active
11,[Se],inactive
12,CC(C)C[C@H]1C(=O)N2CCC[C@H]2[C@]2(O)O[C@](NC(=O)[C@@H]3C=C4c5cccc6[nH]c(Br)c(c56)C[C@H]4N(C)C3)(C(C)C)C(=O)N12,active
13,C[N+](C)(C)CCCl,inactive
14,Clc1ccc(-c2cccc(Cl)c2Cl)c(Cl)c1,active
15,C=CCN(CCO)N=O,active
16,CCCCCCN(N=O)C(N)=O,active; inactive
17,C#CC(C)(C)NC(=O)c1cc(Cl)cc(Cl)c1,active
18,CC(C)(C)NCC(O)c1ccc(O)c(CO)c1 (stereo not given),active; inactive
19,CCCCC/C=C\C/C=C\CCCCCCCC(=O)OC,inactive
20,O=[N+]([O-])c1ccccc1,active
21,O=P(=O)O,inactive
22,Nc1c(Cl)cc([N+](=O)[O-])cc1Cl,inactive
23,CC1=C2C(=CO[C@@H](C)[C@@H]2C)C(=O)C(C(=O)O)=C1O,active
24,O=[N+]([O-])c1ccc(-c2cscn2)o1,active

row,SMILES,outcome
1,C=CCc1ccc(O)c(OC)c1,inactive
2,CCCNC(=O)NS(=O)(=O)c1ccc(Cl)cc1,inactive
3,CCBr,active
4,C=CCc1ccc(OC)cc1,active
5,N,inactive
6,N#CN=C(N)N,inactive; active
7,O=C(O)COc1ccc(Cl)cc1Cl,inactive
8,O=C(O)Cc1cccc2ccccc12,inactive; active
9,NC(=O)c1ccncc1,inactive
10,O=S(=O)(O)c1ccc(N=Nc2c(O)ccc3cc(S(=O)(=O)O)ccc23)cc1,inactive
11,CC(O)CN(C)c1ccc(NN)nn1 (stereo not given),inactive
12,Nc1ncc([N+](=O)[O-])s1,active
13,C/C=N/O,inactive
14,CC(=O)OC[C@H]1O[C@H](O[C@]2(COC(C)=O)O[C@H](COC(=O)C(C)C)[C@@H](OC(=O)C(C)C)[C@@H]2OC(=O)C(C)C)[C@H](OC(=O)C(C)C)[C@@H](OC(=O)C(C)C)[C@@H]1OC(=O)C(C)C,inactive
15,[S-]c1nc2ccccc2s1.[S-]c1nc2ccccc2s1.[Zn+2],inactive; active
16,ClCOCCOCCl,active
17,CC(=O)CN(N=O)C(=O)NCCCl,active
18,CC(N)Cc1ccccc1 (stereo not given),inactive
19,NC1CCCCC1,inactive
20,C[C@](N)(Cc1ccc(O)c(O)c1)C(=O)O,inactive
21,CCCCN(CCCC)C(=S)[S-].CCCCN(CCCC)C(=S)[S-].[Zn+2],inactive
22,O=C(O)CN(CC(=O)O)CC(=O)O,active
23,O=[N+]([O-])c1ccc(Cl)c([N+](=O)[O-])c1,inactive
24,Cc1ccc(NC(N)=O)cc1,active
